Measurements: patent US20160220801A1, “TREATING LICE WITH GASEOUS COMPOUNDS IN AN AIRTIGHT SPACE” (NOVOMIC LTD., priority 2007, published 2016)

Tested on: lice
Conditions: active agent delivered as gas/vapour in an airtight cap around the head; comparison among carboxylic acids

Q: Which “effectiveness of carboxylic acids for use in treating lice and nits” value does the source give for `O=CO` [formic acid, Formic acid] here?
A: Its value is “most effective”.

Q: Which “effectiveness of carboxylic acids for use in treating lice and nits” value does the source give for `CC(=O)O` [acetic acid, Acetic acid] here?
A: The value was “most effective”.
